Laboratory results from patent US11427567B2, “Imidazolyl pyrimidinylamine compounds as CDK2 inhibitors” (Incyte Corporation, priority 2019, dated 2022).
pIC50: −log10 of the molar value.

molecular target: CDK2/Cyclin E1 (Homo sapiens (Human), UniProt P24941); test: CDK2/Cyclin E1 HTRF enzyme activity assay (Example A); assay type: biochemical; settings: 1 mM ATP
Experimental: Assays were conducted in white 384-well polystyrene plates in a final reaction volume of 8 μL. […] HTRF signals were read after 1 hour at room temperature on a PHERAstar FS plate reader (BMG Labtech). Data was analyzed with IDBS XLFit and GraphPad Prism 5.0 software using a three or four parameter dose response curve to determine IC50 for each compound.

pIC50, ≥ 7.30:
CCNCCc1cccc(-n2cnc(-c3nc(NC4CCN(S(C)(=O)=O)CC4)ncc3C(F)(F)F)c2)c1Cl [Example 466, 4-(1-(2-Chloro-3-(2-(ethylamino)ethyl)phenyl)-1H-imidazol-4-yl)-N-(1-(methylsulfonyl)piperidin-4-yl)-5-(trifluoromethyl)pyrimidin-2-amine]
CN1CCN(Cc2ccc(-n3cnc(-c4nc(NC5CCN(S(C)(=O)=O)CC5)ncc4C(F)(F)F)c3)c(Cl)c2)C1=O [Example 453, 1-(3-Chloro-4-(4-(2-((1-(methylsulfonyl)piperidin-4-yl)amino)-5-(trifluoromethyl)pyrimidin-4-yl)-1H-imidazol-1-yl)benzyl)-3-methylimidazolidin-2-one]
C[C@]1(O)CCN(Cc2ccc(-n3cnc(-c4nc(NC5CCN(S(C)(=O)=O)CC5)ncc4C(F)(F)F)c3)c(Cl)c2)C1 [Example 204, (S)-1-(3-Chloro-4-(4-(2-((1-(methyl-sulfonyl)piperidin-4-yl)amino)-5-(trifluoromethyl)-pyrimidin-4-yl)-1H-imidazol-1-yl)-benzyl)-3-methyl-pyrrolidin-3-ol]
C[C@H]1CN(c2ccc(-n3cnc(-c4nc(NC5CCN(S(C)(=O)=O)CC5)ncc4C(F)(F)F)c3)c(Cl)c2)CCN1 [Example 140, (S)-4-(1-(2-Chloro-4-(3-methyl-piperazin-1-yl)-phenyl)-1H-imidazol-4-yl)-N-(1-(methyl-sulfonyl)piperidin-4-yl)-5-(trifluoro-methyl)pyrimidin-2-amine]
Cc1cc(CN2CCC2)ccc1-n1cc(-c2nc(NC3CCN(S(C)(=O)=O)CC3)ncc2C(F)(F)F)nc1C [Example 285, 4-(1-(4-(Azetidin-1-ylmethyl)-2-methylphenyl)-2-methyl-1H-imidazol-4-yl)-N-(1-(methylsulfonyl)piperidin-4-yl)-5-(trifluoromethyl)pyrimidin-2-amine]
CCN1CC(c2ccc(-n3cnc(-c4nc(NC5CCN(S(C)(=O)=O)CC5)ncc4C(F)(F)F)c3)c(C#N)c2)C1 [Example 429, 5-(1-Ethylazetidin-3-yl)-2-(4-(2-((1-(methylsulfonyl)piperidin-4-yl)amino)-5-(trifluoromethyl)pyrimidin-4-yl)-1H-imidazol-1-yl)benzonitrile]
CS(=O)(=O)N1CCC(Nc2ncc(C(F)(F)F)c(-c3cn(-c4cccc(-c5ccnc(N)c5)c4Cl)cn3)n2)CC1 [Example 96, 4-(1-(3-(2-Aminopyridin-4-yl)-2-chlorophenyl)-1H-imidazol-4-yl)-N-(1-(methylsulfonyl)piperidin-4-yl)-5-(trifluoromethyl)pyrimidin-2-amine]
CS(=O)(=O)N1CCC(Nc2ncc(C(F)(F)F)c(-c3cn(-c4cccc(CNC5CCOC5)c4Cl)cn3)n2)CC1 (stereo not shown) [Example 367, 4-(1-(2-Chloro-3-(((tetrahydrofuran-3-yl)amino)methyl)phenyl)-1H-imidazol-4-yl)-N-(1-(methylsulfonyl)piperidin-4-yl)-5-(trifluoromethyl)pyrimi-din-2-amine]
CS(=O)(=O)N1CC[C@@H](Nc2ncc(C(F)(F)F)c(-c3cn(-c4ccc(C#N)cc4Cl)cn3)n2)[C@H](F)C1 [Example 173, 3-Chloro-4-(4-(2-(((3R,4R)-3-fluoro-1-(methylsulfonyl)-piperidin-4-yl)-amino)-5-(trifluoro-methyl)pyrimidin-4-yl)-1H-imidazol-1-yl)benzonitrile]
CN(C)C1CCN(c2ccc(-n3cnc(-c4nc(NC5CCN(S(C)(=O)=O)CC5)ncc4C(F)(F)F)c3)c(Cl)c2)CC1 [Example 145, 4-(1-(2-Chloro-4-(4-(dimethylamino)-piperidin-1-yl)-phenyl)-1H-imidazol-4-yl)-N-(1-(methylsulfonyl)-piperidin-4-yl)-5-(trifluoromethyl)-pyrimidin-2-amine]
Cc1nc(-c2nc(N[C@H]3CCN(S(C)(=O)=O)C[C@H]3F)ncc2C(F)(F)F)cn1-c1ccc(CNC(C)C)cc1F [Example 388, N-((3R,4S)-3-Fluoro-1-(methylsulfonyl)piperidin-4-yl)-4-(1-(2-fluoro-4-((isoporopylamino)methyl)phenyl)-2-methyl-1H-imidazol-4-yl)-5-(trifluoromethyl)pyrimidin-2-amine]
CNCc1ccc(-n2cnc(-c3nc(N[C@H]4CCN(S(=O)(=O)C5CC5)C[C@H]4C)ncc3C(F)(F)F)c2)c(Cl)c1 [Example 223, 4-(1-(2-Chloro-4-((methylamino)-methyl)phenyl)-1H-imidazol-4-yl)-N-((3R,4S)-1-(cyclo-propylsulfonyl)-3-methylpiperidin-4-yl)-5-(trifluoro-methyl)pyrimidin-2-amine]
Cc1nc(-c2nc(NC3CCN(S(C)(=O)=O)CC3)ncc2C(F)(F)F)cn1-c1ccc(N2CC[C@H](O)C2)cc1F [Example 116, (S)-1-(3-Fluoro-4-(2-methyl-4-(2-((1-(methylsulfonyl)-piperidin-4-yl)-amino)-5-(trifluoro-methyl)pyrimidin-4-yl)-1H-imidazol-1-yl)phenyl)pyrrolidin-3-ol]
Cc1nc(-c2nc(NC3CCN(S(C)(=O)=O)CC3)ncc2C(F)(F)F)cn1-c1cccc(C#N)c1F [Example 304, 2-Fluoro-3-(2-methyl-4-(2-((1-(methylsulfonyl)piperidin-4-yl)amino)-5-(trifluoromethyl)pyrimidin-4-yl)-1H-imidazol-1-yl)benzonitrile]
CS(=O)(=O)N1CC[C@H](Nc2ncc(C(F)(F)F)c(-c3cn(-c4cccnc4C(F)F)cn3)n2)[C@H](F)C1 [Example 50, 4-(1-(2-(Difluoromethyl)pyridin-3-yl)-1H-imidazol-4-yl)-N-((3R,4S)-3-fluoro-1-(methylsulfonyl)piperidin-4-yl)-5-(trifluoromethyl)pyrimidin-2-amine]
CS(=O)(=O)N1CC[C@H](Nc2ncc(C(F)(F)F)c(-c3cn(-c4ccnc(C#N)c4Cl)cn3)n2)[C@H](F)C1 [Example 308, 3-Chloro-4-(4-(2-(((3R,4S)-3-fluoro-1-(methylsulfonyl)piperidin-4-yl)amino)-5-(trifluoromethyl)pyrimidin-4-yl)-1H-imidazol-1-yl)picolinonitrile]
CCCc1ccc(-n2cnc(-c3nc(NC4CCN(S(C)(=O)=O)CC4)ncc3C(F)(F)F)c2)c(C#N)n1 [Example 94, 3-(4-(2-((1-(Methylsulfonyl)piperidin-4-yl)amino)-5-(trifluoromethyl)pyrimidin-4-yl)-1H-imidazol-1-yl)-6-propylpicolinonitrile]
CN(C)CCc1ccc(-n2cnc(-c3nc(NC4CCN(S(C)(=O)=O)CC4)ncc3C(F)(F)F)c2)c(Cl)c1 [Example 157, 4-(1-(2-Chloro-4-(2-(dimethylamino)ethyl)phenyl)-1H-imidazol-4-yl)-N-(1-(methylsulfonyl)piperidin-4-yl)-5-(trifluoromethyl)pyrimidin-2-amine]
CC1CN(Cc2ccc(-n3cnc(-c4nc(NC5CCN(S(C)(=O)=O)CC5)ncc4C(F)(F)F)c3)c(Cl)c2F)C1 [Example 270, 4-(1-(2-Chloro-3-fluoro-4-((3-methylazetidin-1-yl)methyl)phenyl)-1H-imidazol-4-yl)-N-(1-(methylsulfonyl)piperidin-4-yl)-5-(trifluoromethyl)pyrimidin-2-amine]
Cc1c(-n2cnc(-c3nc(N[C@H]4CCN(S(C)(=O)=O)C[C@H]4F)ncc3C(F)(F)F)c2)ccnc1C#N [Example 302, 4-(4-(2-(((3R,4S)-3-Fluoro-1-(methylsulfonyl)piperidin-4-yl)amino)-5-(trifluoromethyl)pyrimidin-4-yl)-1H-imidazol-1-yl)-3-methylpicolinonitrile]
CS(=O)(=O)N1CCC(Nc2ncc(C(F)(F)F)c(-c3cn(-c4cccc(C#N)c4Br)cn3)n2)CC1 [Example 63, 2-Bromo-3-(4-(2-((1-(methylsulfonyl)piperidin-4-yl)amino)-5-(trifluoromethyl)pyrimidin-4-yl)-1H-imidazol-1-yl)benzonitrile]
CS(=O)(=O)N1CCC(Nc2ncc(C(F)(F)F)c(-c3cn(-c4ccc5nccnc5c4Br)cn3)n2)CC1 [Example 162, 4-(1-(5-Bromoquinoxalin-6-yl)-1H-imidazol-4-yl)-N-(1-(methylsulfonyl)piperidin-4-yl)-5-(trifluoromethyl)pyrimidin-2-amine]
Cc1nc(-c2nc(NC3CCN(S(C)(=O)=O)CC3)ncc2C(F)(F)F)cn1-c1ccc(-c2ccnn2C)cc1F [Example 129, 4-(1-(2-Fluoro-4-(1-methyl-1H-pyrazol-5-yl)phenyl)-2-methyl-1H-imidazol-4-yl)-N-(1-(methylsulfonyl)-piperidin-4-yl)-5-(trifluoromethyl)-pyrimidin-2-amine]
Cc1nc(-c2nc(NC3CCN(S(C)(=O)=O)CC3)ncc2C(F)(F)F)cn1-c1ccc(N2CCC(N3CCCC3)CC2)cc1F [Example 114, 4-(1-(2-Fluoro-4-(4-(pyrrolidin-1-yl)piperidin-1-yl)-phenyl)-2-methyl-1H-imidazol-4-yl)-N-(1-(methyl-sulfonyl)piperidin-4-yl)-5-(trifluoro-methyl)pyrimidin-2-amine]
CNCc1cccc(-n2cnc(-c3nc(NC4CCN(S(C)(=O)=O)CC4)ncc3C(F)(F)F)c2)c1Cl [Example 80, 4-(1-(2-Chloro-3-((methylamino)methyl)phenyl)-1H-imidazol-4-yl)-N-(1-(methylsulfonyl)piperidin-4-yl)-5-(trifluoromethyl)pyrimidin-2-amine]
